Laboratory results from ChEMBL document CHEMBL1201862, “PubChem BioAssay data set” (2004).
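In this assay, cells in 96-well plates receive the compound at five concentrations for 48 hours. Endpoints are linearly interpolated between the surrounding concentrations. GI50: concentration for 50% inhibition of growth.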 The source made the active and inactive calls. Cut-off read from the data, not from the text of the source: active = GI50 up to about 1.1 µM and inactive = higher.

Key:
Assay in all cases: DTP human tumour cell line panel, 48 h
MOLT-4 = system: MOLT-4
HOP-92 = system: HOP-92
NCI-H23 = system: NCI-H23
SN12C = system: SN12C
UACC-257 = system: UACC-257
Hs-578T = system: Hs-578T
SW-620 = system: SW-620
NCI-H522 = system: NCI-H522
SF-268 = system: SF-268
EKVX = system: EKVX
SK-MEL-5 = system: SK-MEL-5
CAKI-1 = system: CAKI-1
BT-549 = system: BT-549
UO-31 = system: UO-31
CCRF-CEM = system: CCRF-CEM
HT-29 = system: HT-29
PC-3 = system: PC-3
HCT-116 = system: HCT-116
MDA-MB-435 = system: MDA-MB-435
SR = system: SR
HOP-62 = system: HOP-62
SF-295 = system: SF-295
UACC-62 = system: UACC-62
MCF7 = system: MCF7
KM12 = system: KM12
NCI-H460 = system: NCI-H460
OVCAR-5 = system: OVCAR-5
SK-MEL-28 = system: SK-MEL-28
RPMI-8226 = system: RPMI-8226
LOX IMVI = system: LOX IMVI
COLO 205 = system: COLO 205
HCT-15 = system: HCT-15
OVCAR-3 = system: OVCAR-3
SK-MEL-2 = system: SK-MEL-2
Malme-3M = system: Malme-3M
M14 = system: M14
U-251 = system: U-251
IGROV-1 = system: IGROV-1
MDA-N = system: MDA-N
SK-OV-3 = system: SK-OV-3
RXF 393 = system: RXF 393
786-0 = system: 786-0
K562 = system: K562
A498 = system: A498
ACHN = system: ACHN
HCC 2998 = system: HCC 2998
T47D = system: T47D
OVCAR-8 = system: OVCAR-8
OVCAR-4 = system: OVCAR-4
SNB-75 = system: SNB-75
MDA-MB-231 = system: MDA-MB-231
TK-10 = system: TK-10
A549 = system: A549
NCI-H226 = system: NCI-H226
SF-539 = system: SF-539
NCI/ADR-RES = system: NCI/ADR-RES
SNB-19 = system: SNB-19
HL-60 = system: HL-60
DU-145 = system: DU-145

SMILES: CC(=O)Nc1ccc(Nc2cc(=O)n(C)c(=O)[nH]2)cc1
- GI50 (MOLT-4): > 100 µM (inactive)
- GI50 (HOP-92): > 100 µM (inactive)
- GI50 (NCI-H23): > 100 µM (inactive)
- GI50 (SN12C): > 100 µM (inactive)
- GI50 (UACC-257): > 100 µM (inactive)
- GI50 (Hs-578T): > 100 µM (inactive)
- GI50 (SW-620): > 100 µM (inactive)
- GI50 (NCI-H522): > 100 µM (inactive)
- GI50 (SF-268): > 100 µM (inactive)
- GI50 (EKVX): > 100 µM (inactive)
- GI50 (SK-MEL-5): > 100 µM (inactive)
- GI50 (CAKI-1): > 100 µM (inactive)
- GI50 (BT-549): > 100 µM (inactive)
- GI50 (UO-31): > 100 µM (inactive)
- GI50 (CCRF-CEM): > 100 µM (inactive)
- GI50 (HT-29): > 100 µM (inactive)
- GI50 (PC-3): > 100 µM (inactive)
- GI50 (HCT-116): > 100 µM (inactive)
- GI50 (MDA-MB-435): > 100 µM (inactive)
- GI50 (SR): > 100 µM (inactive)
- GI50 (HOP-62): > 100 µM (inactive)
- GI50 (SF-295): > 100 µM (inactive)
- GI50 (UACC-62): > 100 µM (inactive)
- GI50 (MCF7): > 100 µM (inactive)
- GI50 (KM12): > 100 µM (inactive)
- GI50 (NCI-H460): > 100 µM (inactive)
- GI50 (OVCAR-5): > 100 µM (inactive)
- GI50 (SK-MEL-28): > 100 µM (inactive)
- GI50 (RPMI-8226): > 100 µM (inactive)
- GI50 (LOX IMVI): > 100 µM (inactive)
- GI50 (COLO 205): > 100 µM (inactive)
- GI50 (HCT-15): > 100 µM
- GI50 (OVCAR-3): > 100 µM (inactive)
- GI50 (SK-MEL-2): > 100 µM (inactive)
- GI50 (Malme-3M): > 100 µM (inactive)
- GI50 (M14): > 100 µM (inactive)
- GI50 (U-251): > 100 µM (inactive)
- GI50 (IGROV-1): > 100 µM (inactive)
- GI50 (MDA-N): > 100 µM (inactive)
- GI50 (SK-OV-3): > 100 µM (inactive)
- GI50 (RXF 393): > 100 µM (inactive)
- GI50 (786-0): > 100 µM (inactive)
- GI50 (K562): > 100 µM (inactive)
- GI50 (A498): > 100 µM (inactive)
- GI50 (ACHN): > 100 µM (inactive)
- GI50 (HCC 2998): > 100 µM (inactive)
- GI50 (T47D): > 100 µM (inactive)
- GI50 (OVCAR-8): > 100 µM (inactive)
- GI50 (OVCAR-4): > 100 µM (inactive)
- GI50 (SNB-75): > 100 µM (inactive)
- GI50 (MDA-MB-231): > 100 µM (inactive)
- GI50 (TK-10): > 100 µM (inactive)
- GI50 (A549): > 100 µM (inactive)
- GI50 (NCI-H226): > 100 µM (inactive)
- GI50 (SF-539): > 100 µM (inactive)
- GI50 (NCI/ADR-RES): > 100 µM (inactive)
- GI50 (SNB-19): > 100 µM (inactive)

SMILES: CC1(N2CCOCC2)CC2C(=[N+]1[O-])CCC/C2=N/O (centres undefined)
- GI50 (MOLT-4): > 100 µM (inactive)
- GI50 (NCI-H23): > 100 µM (inactive)
- GI50 (SN12C): > 100 µM (inactive)
- GI50 (UACC-257): > 100 µM (inactive)
- GI50 (Hs-578T): > 100 µM (inactive)
- GI50 (SW-620): > 100 µM (inactive)
- GI50 (NCI-H522): > 100 µM (inactive)
- GI50 (SF-268): > 100 µM (inactive)
- GI50 (EKVX): > 100 µM (inactive)
- GI50 (SK-MEL-5): > 100 µM (inactive)
- GI50 (CAKI-1): > 100 µM (inactive)
- GI50 (BT-549): > 100 µM (inactive)
- GI50 (UO-31): > 100 µM (inactive)
- GI50 (CCRF-CEM): > 100 µM (inactive)
- GI50 (HT-29): > 100 µM (inactive)
- GI50 (PC-3): > 100 µM (inactive)
- GI50 (HCT-116): > 100 µM (inactive)
- GI50 (MDA-MB-435): > 100 µM (inactive)
- GI50 (SR): > 100 µM (inactive)
- GI50 (HOP-62): > 100 µM (inactive)
- GI50 (SF-295): > 100 µM (inactive)
- GI50 (UACC-62): > 100 µM (inactive)
- GI50 (MCF7): > 100 µM (inactive)
- GI50 (KM12): > 100 µM (inactive)
- GI50 (NCI-H460): > 100 µM (inactive)
- GI50 (OVCAR-5): > 100 µM (inactive)
- GI50 (SK-MEL-28): > 100 µM (inactive)
- GI50 (LOX IMVI): > 100 µM (inactive)
- GI50 (HCT-15): > 100 µM
- GI50 (OVCAR-3): > 100 µM (inactive)
- GI50 (SK-MEL-2): > 100 µM (inactive)
- GI50 (Malme-3M): > 100 µM (inactive)
- GI50 (M14): > 100 µM (inactive)
- GI50 (U-251): > 100 µM (inactive)
- GI50 (IGROV-1): > 100 µM (inactive)
- GI50 (MDA-N): > 100 µM (inactive)
- GI50 (SK-OV-3): > 100 µM (inactive)
- GI50 (RXF 393): > 100 µM (inactive)
- GI50 (786-0): > 100 µM (inactive)
- GI50 (K562): > 100 µM (inactive)
- GI50 (ACHN): > 100 µM (inactive)
- GI50 (HCC 2998): > 100 µM (inactive)
- GI50 (T47D): > 100 µM (inactive)
- GI50 (OVCAR-8): > 100 µM (inactive)
- GI50 (OVCAR-4): > 100 µM (inactive)
- GI50 (SNB-75): 0.334 µM (active)
- GI50 (MDA-MB-231): > 100 µM (inactive)
- GI50 (TK-10): > 100 µM (inactive)
- GI50 (A549): > 100 µM (inactive)
- GI50 (NCI-H226): > 100 µM (inactive)
- GI50 (SF-539): > 100 µM (inactive)
- GI50 (NCI/ADR-RES): > 100 µM (inactive)
- GI50 (SNB-19): > 100 µM (inactive)

SMILES: COc1cc2c3c(n(CCCNCCO)c(=O)c2cc1OC)-c1cc2c(cc1C3=O)OCO2
- GI50 (MOLT-4): < 0.01 µM (active)
- GI50 (NCI-H23): < 0.01 µM (active)
- GI50 (HL-60): < 0.0465 µM (active)
- GI50 (SN12C): < 0.01 µM (active)
- GI50 (Hs-578T): 1.71 µM (inactive)
- GI50 (SW-620): 0.16 µM (active)
- GI50 (NCI-H522): < 0.038 µM (active)
- GI50 (SF-268): < 0.0338 µM (active)
- GI50 (SK-MEL-5): 0.19 µM (active)
- GI50 (BT-549): 0.935 µM (active)
- GI50 (CCRF-CEM): < 0.01 µM (active)
- GI50 (HT-29): < 0.0311 µM (active)
- GI50 (PC-3): 1.02 µM (active)
- GI50 (SR): < 0.01 µM (active)
- GI50 (SF-295): < 0.01 µM (active)
- GI50 (UACC-62): 0.0236 µM (active)
- GI50 (MCF7): < 0.01 µM (active)
- GI50 (KM12): 0.541 µM (active)
- GI50 (NCI-H460): < 0.01 µM (active)
- GI50 (OVCAR-5): 0.384 µM (active)
- GI50 (LOX IMVI): < 0.01 µM (active)
- GI50 (COLO 205): 0.392 µM (active)
- GI50 (OVCAR-3): 0.813 µM (active)
- GI50 (M14): 0.0422 µM (active)
- GI50 (DU-145): < 0.01 µM (active)
- GI50 (IGROV-1): 0.0935 µM (active)
- GI50 (MDA-N): 0.611 µM (active)
- GI50 (786-0): < 0.01 µM (active)
- GI50 (A498): 0.378 µM (active)
- GI50 (ACHN): < 0.01 µM (active)
- GI50 (HCC 2998): 0.536 µM (active)
- GI50 (T47D): 0.0165 µM (active)
- GI50 (OVCAR-8): 0.158 µM (active)
- GI50 (MDA-MB-231): 0.537 µM (active)
- GI50 (TK-10): 1.38 µM (inactive)
- GI50 (NCI-H226): 0.206 µM (active)
- GI50 (SF-539): 0.0381 µM (active)
- GI50 (NCI/ADR-RES): 0.546 µM (active)
- GI50 (SNB-19): 0.012 µM (active)
